{
  "source": "patent US20240299698A1",
  "about": "“PREVENTION AND TREATMENT OF POST-OPERATIVE COGNITIVE DYSFUNCTION (POCD)” (Noetix Pharma LLC, priority 2022, published 2024)",
  "key": {"mouse model of (POCD) [1]": {"test_system": "mouse model of (POCD)", "test": "Fear conditioning cued testing in laparotomy mouse model of POCD", "assay_type": "in vivo, Male C57BI/6 mice", "conditions": "PSD3", "source_text": "To induce POCD, mice were anesthetized with isoflurane and maintained at a surgical plane of anesthesia (2-2.5%). The abdomen was shaved and cleaned/disinfected with both betadine and ethanol (70%). A 1.5 cm vertical incision was made along the midline of the abdomen, perforating the skin and the peritoneal cavity. A sterile blunt probe was inserted into the cavity, and the abdominal viscera and musculature were manipulated for five minutes. Abdominal muscles and skin were sutured, polysporin and topical lidocaine were applied to the incision site, and buprenorphine (0.1 mg/kg s.c.) was administered. Animals were placed into a clean, pre-warmed home cage for recovery and housed singly thereafter.\nFear conditioning is a commonly used test of associative learning where a […] stimulus is paired with an aversive unconditioned stimulus, resulting in a freezing response that can be subsequently quantified. Training occurred on the day prior to surgery, context testing on PSD1 (i.e., 2 days after training) and PSD3 (i.e., 4 days after training), and cued testing on PSD3 at a time point three hours after the final context test. For training and context testing, mice were placed in an operant chamber (Med Associates). For cued testing, mice were placed into a novel arena with novel external environment and scent.\nFear conditioning training was performed to generate an association between a neutral “conditional” stimulus (80 dB tone) with an aversive “unconditional” stimulus (0.4 mA shock). Before training, the system was tested to confirm proper operation of the shock and tone. During training, the testing environment was kept quiet and well controlled. Temperature and humidity levels were kept constant and the experimenter was not visible from the operant chamber, which was cleaned between animals. The training protocol was as follows: 1. Each mouse was habituated to the testing room for 20 minutes. 2. Video recording was initiated and the animal's ID card was recorded. 3. Each mouse was placed into the operant chamber and the training protocol was implemented as follows: a. 120 seconds; no stimuli (habituation to the chamber); b. 20 seconds, tone presentation (80 dB); c. 20 seconds, no stimuli (trace delay period); d. 2 seconds, foot shock (0.4 mA); e. 90 seconds, no stimuli (intertrial interval); f. repeat steps a-d followed by a final 30 second no stimuli period. 4. The mouse was returned to its home cage.\nThe purpose of cued testing is to evaluate cued memory for an aversive stimulus. […]\nCued testing was performed as follows: 1. […] Video recording was initiated and the animal's ID card was recorded. […]"}, "mouse model of (POCD) [2]": {"test_system": "mouse model of (POCD)", "test": "Behavioral test battery, summary of experimental results", "assay_type": "in vivo, Male C57BI/6 mice", "source_text": "The project included experiments performed to investigate the therapeutic effects of administration of pirfenidone in a mouse model of (POCD). The model was developed during pilot work completed earlier in the study and was induced by performing a laparotomy with a 5-minute manipulation of abdominal viscera and musculature. Weights and physical condition of the animals were closely monitored throughout the study, with presurgical and daily post-surgical gavage of pirfenidone or saline administered. Behavioral testing was performed to evaluate alterations in learning and memory processes using fear conditioning, novel object recognition, and water maze paradigms. Following euthanasia on the eighth day post-surgery, hippocampal tissue was preserved and later evaluated for morphological characteristics related to microglial cell activation.\nBehavioral testing was performed at various time points throughout the study as outlined in each separate section below and summarized in Table 2. All tests were recorded and analyzed by experimenters blinded to treatment. Data were obtained through a combination of experimenter scoring and use of AnyMaze™ Video Tracking System evaluation."}},
  "data": [
    {"smiles": "Cc1ccc(=O)n(-c2ccccc2)c1", "note": "[pirfenidone, 5-methyl-1-phenyl-2-(1H)-pyridone]", "values": [
      {"measurement": "freezing during cued testing (overall measures)", "setting": "mouse model of (POCD) [1]; Acute (400 mg/kg p.o. single dose) compared to Chronic pirfenidone and Disease controls, longer freeze times", "result": "increased mean performance"},
      {"measurement": "freezing time, cued testing, post-tone period", "setting": "mouse model of (POCD) [1]; Acute compared to Disease Control mice, longer freeze times", "result": "increased mean performance"},
      {"measurement": "freezing during cued testing (overall measures)", "setting": "mouse model of (POCD) [1]; Chronic (400 mg/kg initial; 200 mg/kg p.o. 1x/day)", "result": "performed more similarly to Disease Control"},
      {"measurement": "freezing time, cued testing, post-tone period", "setting": "mouse model of (POCD) [1]; Chronic vs Normal Controls, p=0.088", "result": "trend toward decreased freezing times"},
      {"measurement": "behavioral testing responses (summary)", "setting": "mouse model of (POCD) [2]; Acute pirfenidone treated animals", "result": "equivalent to or better than those seen in Normal Controls"},
      {"measurement": "behavioral testing responses (summary)", "setting": "mouse model of (POCD) [2]; Chronic pirfenidone administration", "result": "beneficial effects, particularly for recognition memory"},
      {"measurement": "behavioral changes associated with memory in postoperative cognitive dysfunction (summary)", "setting": "mouse model of (POCD) [2]; overall, pirfenidone treatment", "result": "protective effect"}
    ]}
  ]
}
